Experimental data published in US20210038607A1, “OXADIAZOLYLTHIOPHENE DERIVATIVES USEFUL AS HISTONE DEACETYLASE INHIBITORS” (Karus Therapeutics Limited, priority 2018, published 2021).
Read-outs that look alike come from different tables or passages of the source.

Columns and labels:
Human HDAC4 = molecular target: T1, Human HDAC4 (Homo sapiens, UniProt P56524); test: HDAC4 biochemical assay, class IIa-specific substrate; details: read-out: HDAC Isoform IC50 (nM) 4
T1 construct: amino acids 627-1085 with N-terminal GST tag; GST (N); host or cells: baculovirus expression system
Outline: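 Two-step fluorogenic read-out: deacetylated BOC-Lys(trifluoroacetyl)-AMC (50 μM) was digested by developer and measured at Ex/Em 360/460. Deacetylation by 0.004 ng/ul HDAC4 (aa 627-1085, N-terminal GST) ran 30 min at room temperature, pH 8.0 Tris buffer, 1 mg/mL BSA, 1% DMSO.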

Recombinant human HDAC6 = molecular target: T2, Recombinant human HDAC6 (Homo sapiens, UniProt Q9UBN7); test: HDAC6 biochemical assay, AMC-labeled peptide substrate
T2 construct: full length, MW=159 kDa; GST (N); host or cells: Sf9 insect cells (baculovirus)
T2 sequence (Q9UBN7 1-1215): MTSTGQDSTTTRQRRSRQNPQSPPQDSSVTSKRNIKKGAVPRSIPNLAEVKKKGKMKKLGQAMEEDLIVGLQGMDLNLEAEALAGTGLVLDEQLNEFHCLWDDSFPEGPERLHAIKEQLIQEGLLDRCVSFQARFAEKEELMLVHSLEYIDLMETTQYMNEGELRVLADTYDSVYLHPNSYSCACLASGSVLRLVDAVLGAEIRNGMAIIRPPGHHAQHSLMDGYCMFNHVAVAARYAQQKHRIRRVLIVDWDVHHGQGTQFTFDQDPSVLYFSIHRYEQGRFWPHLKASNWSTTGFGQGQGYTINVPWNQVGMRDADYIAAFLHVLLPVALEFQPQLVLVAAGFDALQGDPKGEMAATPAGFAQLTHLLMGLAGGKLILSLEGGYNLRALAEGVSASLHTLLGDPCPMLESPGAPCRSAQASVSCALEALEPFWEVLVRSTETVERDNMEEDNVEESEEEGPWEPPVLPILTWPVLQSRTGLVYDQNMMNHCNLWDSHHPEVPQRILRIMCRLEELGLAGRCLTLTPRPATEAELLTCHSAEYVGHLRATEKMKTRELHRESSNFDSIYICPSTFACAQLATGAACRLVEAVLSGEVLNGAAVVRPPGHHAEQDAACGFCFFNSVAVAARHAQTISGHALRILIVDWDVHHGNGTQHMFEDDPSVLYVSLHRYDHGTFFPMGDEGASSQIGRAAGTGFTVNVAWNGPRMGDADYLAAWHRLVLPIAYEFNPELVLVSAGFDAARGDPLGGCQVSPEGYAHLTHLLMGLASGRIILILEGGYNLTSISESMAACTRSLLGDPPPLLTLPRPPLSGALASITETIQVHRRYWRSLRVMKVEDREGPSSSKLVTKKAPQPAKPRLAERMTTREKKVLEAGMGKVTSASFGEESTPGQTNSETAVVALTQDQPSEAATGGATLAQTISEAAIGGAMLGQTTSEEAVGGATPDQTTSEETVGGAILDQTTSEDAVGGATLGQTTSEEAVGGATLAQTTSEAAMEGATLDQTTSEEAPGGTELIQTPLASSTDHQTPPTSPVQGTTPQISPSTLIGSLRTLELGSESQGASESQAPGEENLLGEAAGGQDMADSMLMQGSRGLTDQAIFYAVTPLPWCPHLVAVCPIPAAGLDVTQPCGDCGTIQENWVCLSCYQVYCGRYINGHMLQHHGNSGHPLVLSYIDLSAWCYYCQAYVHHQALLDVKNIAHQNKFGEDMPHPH
Outline: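 Two-step fluorogenic read-out: enzyme deacetylates 50 μM RHKK(Ac)AMC for 1 h at 30° C in pH 8.0 Tris buffer with BSA and 1% DMSO, then developer cleavage gives signal at Ex 360/Em 460. Enzyme: 0.3 ng/ul recombinant full-length human HDAC6, GST-tagged, Sf9-expressed.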

Human HDAC1 = molecular target: T3, Human HDAC1 (Homo sapiens, UniProt Q13547); test: HDAC1 biochemical assay, AMC-labeled peptide substrate; details: read-out: HDAC Isoform IC50 (nM) 1
T3 construct: full length with C-terminal His-tag and C-terminal FLAG-tag; His (C); FLAG (C); host or cells: baculovirus expression system
Outline: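 Two-step fluorogenic read: HDAC1 deacetylates 50 μM acetyl-lysine AMC peptide RHKK(Ac)AMC for 1 h at 30° C (pH 8.0, 1% DMSO, with compound), then developer digests the product for fluorescence at Ex/Em 360/460. Enzyme is full-length human, His/FLAG-tagged, insect-cell expressed, at 0.3 ng/ul.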

[1] = HDAC6, read-out: HDAC Isoform IC50 (nM) 6

T3 sequence (Q13547 whole entry, canonical isoform): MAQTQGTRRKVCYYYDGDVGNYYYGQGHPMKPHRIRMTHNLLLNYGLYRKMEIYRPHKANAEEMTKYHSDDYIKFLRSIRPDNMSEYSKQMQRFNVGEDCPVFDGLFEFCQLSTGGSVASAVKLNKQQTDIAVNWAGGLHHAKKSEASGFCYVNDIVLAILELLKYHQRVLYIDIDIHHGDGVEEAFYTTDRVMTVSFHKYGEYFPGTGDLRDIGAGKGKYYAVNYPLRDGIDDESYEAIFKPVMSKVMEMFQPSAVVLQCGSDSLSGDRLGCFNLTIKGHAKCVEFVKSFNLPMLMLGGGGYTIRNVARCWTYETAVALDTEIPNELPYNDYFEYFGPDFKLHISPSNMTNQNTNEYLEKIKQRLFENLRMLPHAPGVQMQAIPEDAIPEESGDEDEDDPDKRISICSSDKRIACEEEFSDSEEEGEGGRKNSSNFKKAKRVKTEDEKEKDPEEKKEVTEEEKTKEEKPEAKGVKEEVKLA
T1 sequence (P56524 627-1084 limits assumed): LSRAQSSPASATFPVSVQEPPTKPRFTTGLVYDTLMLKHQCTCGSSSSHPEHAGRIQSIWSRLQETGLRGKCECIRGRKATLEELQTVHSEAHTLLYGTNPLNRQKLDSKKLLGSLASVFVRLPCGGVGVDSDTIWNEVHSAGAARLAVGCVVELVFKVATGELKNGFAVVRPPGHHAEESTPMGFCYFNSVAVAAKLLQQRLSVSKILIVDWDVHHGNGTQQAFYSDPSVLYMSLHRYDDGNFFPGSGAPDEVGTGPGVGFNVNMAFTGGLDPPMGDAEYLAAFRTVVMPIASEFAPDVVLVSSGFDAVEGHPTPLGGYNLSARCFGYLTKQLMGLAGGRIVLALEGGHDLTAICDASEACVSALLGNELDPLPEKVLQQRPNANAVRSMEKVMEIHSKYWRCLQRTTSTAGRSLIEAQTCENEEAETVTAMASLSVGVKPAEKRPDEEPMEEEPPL

Row | IC50 (Human HDAC4) [nM] | IC50 (Recombinant human HDAC6; [1]) [nM] | IC50 (Human HDAC1) [nM] | IC50 (Recombinant human HDAC6; With assay conditions in the experimental section described herein, read-out: HDAC6 IC50) [nM] | Compound
1 | ≤ 10000 | ≤ 500 | > 10000 |  | O=C(c1cnnc(N(Cc2ccc(-c3noc(C(F)(F)F)n3)s2)c2cnccn2)c1)N1C[C@H]2C[C@@H]1CO2 [Example FW, 5-[(1R,4R)-2-Oxa-5-azabicyclo[2.2.1]heptane-5-carbonyl]-N-(pyrazin-2-yl)-N-({5-[5-(trifluoromethyl)-1,2,4-oxadiazol-3-yl]thiophen-2-yl}methyl)pyridazin-3-amine]
2 | ≤ 10000 | ≤ 1000 | > 10000 |  | NC(=O)c1nccnc1N(Cc1ccc(-c2noc(C(F)(F)F)n2)s1)c1cnccn1 [Example GO, 3-[(Pyrazin-2-yl)({5-[5-(trifluoromethyl)-1,2,4-oxadiazol-3-yl]thiophen-2-yl}methyl)amino]pyrazine-2-carboxamide]
3 | ≤ 500 | ≤ 500 | > 10000 |  | Nc1cnnc(N(Cc2ccc(-c3noc(C(F)(F)F)n3)s2)c2cnccn2)c1 [Example FL, N3-(Pyrazin-2-yl)-N3-({5-[5-(trifluoromethyl)-1,2,4-oxadiazol-3-yl]thiophen-2-yl}methyl)pyridazine-3,5-diamine]
4 | ≤ 500 | ≤ 500 | ≤ 10000 |  | NC(=O)c1ccc(N(Cc2ccc(-c3noc(C(F)(F)F)n3)s2)c2cnccn2)nn1 [Example DQ, 6-[(Pyrazin-2-yl)({5-[5-(trifluoromethyl)-1,2,4-oxadiazol-3-yl]thiophen-2-yl}methyl)amino]pyridazine-3-carboxamide]
5 | ≤ 10000 | ≤ 500 | > 10000 | 99.1 | O=C(c1cnnc(N(Cc2ccc(-c3noc(C(F)(F)F)n3)s2)c2cnccn2)c1)N1CCOCC1 [Example EB, 5-(Morpholine-4-carbonyl)-N-(pyrazin-2-yl)-N-({5-[5-(trifluoromethyl)-1,2,4-oxadiazol-3-yl]thiophen-2-yl}methyl)pyridazin-3-amine]
6 | ≤ 500 | ≤ 500 | > 10000 |  | O=C(c1ccc(N(Cc2ccc(-c3noc(C(F)(F)F)n3)s2)c2cnccn2)nn1)N1CCOCC1 [Example DS, 6-(Morpholine-4-carbonyl)-N-(pyrazin-2-yl)-N-({5-[5-(trifluoromethyl)-1,2,4-oxadiazol-3-yl]thiophen-2-yl}methyl)pyridazin-3-amine]
7 | ≤ 10000 | ≤ 500 | > 10000 |  | O=C(c1cnnc(N(Cc2ccc(-c3noc(C(F)(F)F)n3)s2)c2cnccn2)c1)N1C[C@@H]2C[C@H]1CO2 [Example FV, 5-[(1S,4S)-2-Oxa-5-azabicyclo[2.2.1]heptane-5-carbonyl]-N-(pyrazin-2-yl)-N-({5-[5-(trifluoromethyl)-1,2,4-oxadiazol-3-yl]thiophen-2-yl}methyl)pyridazin-3-amine]

Further lines, the molecule ahead of its results:

Row | Compound | IC50 (Human HDAC4) [nM] | IC50 (Recombinant human HDAC6; [1]) [nM] | IC50 (Human HDAC1) [nM] | IC50 (Recombinant human HDAC6; With assay conditions in the experimental section described herein, read-out: HDAC6 IC50) [nM]
8 | COc1cncc(N(Cc2ccc(-c3noc(C(F)(F)F)n3)s2)c2cc(C(F)(F)F)cnn2)n1 [Example EN, N-(6-Methoxypyrazin-2-yl)-5-(trifluoromethyl)-N-({5-[5-(trifluoromethyl)-1,2,4-oxadiazol-3-yl]thiophen-2-yl}methyl)pyridazin-3-amine] | ≤ 10000 | ≤ 500 | > 10000 | 
9 | Cc1nccnc1N(Cc1ccc(-c2noc(C(F)(F)F)n2)s1)c1cnccn1 [Example BE, 3-Methyl-N-(pyrazin-2-yl)-N-({5-[5-(trifluoromethyl)-1,2,4-oxadiazol-3-yl]thiophen-2-yl}methyl)pyrazin-2-amine] | ≤ 500 | ≤ 500 | > 10000 | 
10 | O=C(c1ccc(N(Cc2ccc(-c3noc(C(F)(F)F)n3)s2)c2cnccn2)nn1)N1CCC12COC2 [Example FH, 6-{6-Oxa-1-azaspiro[3.3]heptane-1-carbonyl}-N-(pyrazin-2-yl)-N-({5-[5-(trifluoromethyl)-1,2,4-oxadiazol-3-yl]thiophen-2-yl}methyl)pyridazin-3-amine] | ≤ 500 | ≤ 500 | ≤ 10000 | 
11 | Cc1cncc(N(Cc2ccc(-c3noc(C(F)(F)F)n3)s2)c2cnccn2)n1 [Example BP, 6-Methyl-N-(pyrazin-2-yl)-N-({5-[5-(trifluoromethyl)-1,2,4-oxadiazol-3-yl]thiophen-2-yl}methyl)pyrazin-2-amine] | ≤ 1000 | ≤ 500 | > 10000 | 
12 | FC(F)(F)c1nc(-c2ccc(CN(c3cnccn3)c3ncccn3)s2)no1 [Example AS, N-(Pyrimidin-2-yl)-N-({5-[5-(trifluoromethyl)-1,2,4-oxadiazol-3-yl]thiophen-2-yl}methyl)pyrazin-2-amine] | ≤ 10000 | ≤ 1000 | > 10000 | 
13 | N#Cc1cnnc(N(Cc2ccc(-c3noc(C(F)(F)F)n3)s2)c2cnccn2)c1 [Example EE, 6-[(Pyrazin-2-yl)({5-[5-(trifluoromethyl)-1,2,4-oxadiazol-3-yl]thiophen-2-yl}methyl)amino]pyridazine-4-carbonitrile] | ≤ 10000 | ≤ 500 | > 10000 | 
14 | O=C(c1nccnc1N(Cc1ccc(-c2noc(C(F)(F)F)n2)s1)c1cnccn1)N1CCC1 [Example GP, 3-(Azetidine-1-carbonyl)-N-(pyrazin-2-yl)-N-({5-[5-(trifluoromethyl)-1,2,4-oxadiazol-3-yl]thiophen-2-yl}methyl)pyrazin-2-amine] | ≤ 10000 | ≤ 1000 | > 10000 | 
15 | COC1CN(C(=O)c2cnnc(N(Cc3ccc(-c4noc(C(F)(F)F)n4)s3)c3cnccn3)c2)C1 [Example DZ, 5-(3-Methoxyazetidine-1-carbonyl)-N-(pyrazin-2-yl)-N-({5-[5-(trifluoromethyl)-1,2,4-oxadiazol-3-yl]thiophen-2-yl}methyl)pyridazin-3-amine] | ≤ 10000 | ≤ 500 | > 10000 | 
16 | FC(F)(F)c1cnc(N(Cc2ccc(-c3noc(C(F)(F)F)n3)s2)c2cnccn2)cn1 [Example BK, N-(Pyrazin-2-yl)-5-(trifluoromethyl)-N-({5-[5-(trifluoromethyl)-1,2,4-oxadiazol-3-yl]thiophen-2-yl}methyl)pyrazin-2-amine] | ≤ 10000 | ≤ 10000 | > 10000 | 
17 | FC(F)(F)c1nc(-c2ccc(CN(c3cnccn3)c3cnccn3)s2)no1 [Example BA, N-(Pyrazin-2-yl)-N-({5-[5-(trifluoromethyl)-1,2,4-oxadiazol-3-yl]thiophen-2-yl}methyl)pyrazin-2-amine] | ≤ 1000 | ≤ 500 | > 10000 | 
18 | O=C(c1cnnc(N(Cc2ccc(-c3noc(C(F)(F)F)n3)s2)c2cnccn2)c1)N1CCC(F)(F)CC1 [Example FY, 5-(4,4-Difluoropiperidine-1-carbonyl)-N-(pyrazin-2-yl)-N-({5-[5-(trifluoromethyl)-1,2,4-oxadiazol-3-yl]thiophen-2-yl}methyl)pyridazin-3-amine] | ≤ 10000 | ≤ 500 | > 10000 | 
19 | O=C(c1nccnc1N(Cc1ccc(-c2noc(C(F)(F)F)n2)s1)c1cnccn1)N1CC(O)(C(F)(F)F)C1 [Example GQ, 1-{3-[(Pyrazin-2-yl)({5-[5-(trifluoromethyl)-1,2,4-oxadiazol-3-yl]thiophen-2-yl}methyl)amino]pyrazine-2-carbonyl}-3-(trifluoromethyl)azetidin-3-ol] | ≤ 10000 | ≤ 1000 | > 10000 | 
